Test system: patients with prior myocardial infarction (CARE study)
Assay: CARE: association of SNPs with pravastatin treatment in cardiovascular events prevention (logistic regression, odds ratio pravastatin vs placebo by genotype; Table 8)
Format: in vivo, human
Details: for Fatal CHD/Definite Nonfatal MI, n/total (%) / Fatal/Nonfatal MI (def & prob), n/total (%) / MI (Fatal/Nonfatal), n/total (%) / Nonfatal MI (Probable/Definite), n/total (%) / Nonfatal MI (def & prob), n/total (%): GAPD hCV8921288, All Patients
From the text: In order to identify genetic markers associated with acute coronary events (e.g. MI, stroke, unstable angina, congestive heart failure, etc.) or response to statin treatment for the prevention of coronary events, samples from the Cholesterol and Recurrent Events (CARE) study (a randomized multicentral double-blinded trial on secondary prevention of acute coronary events with pravastatin) (Sacks et al., 1991, Am. J. Cardiol. 68: 1436-1446) were genotyped. A well-documented myocardial infarction (MI) was one of the enrollment criteria for entry into the CARE study. Patients were enrolled in the CARE trial from 80 participating study centers. […] Patients were randomized to receive either 40 mg of pravastatin once daily or a matching placebo. The primary endpoint of the trial was death from coronary heart disease and the median duration of follow-up was 5.0 years (range, 4.0 to 6.2 years). […] Secondary endpoints of other related cardiovascular or metabolic disease events, and changes in clinical variables were also recorded in pravastatin-treated and placebo groups. All individuals included in the study had signed a written informed consent form and the study protocol was approved by the respective Institutional Review Boards (IRBs).
For genotyping SNPs in CARE patient samples, DNA was extracted from blood samples using conventional DNA extraction methods such as the QIA-amp kit from Qiagen. Genotypes were obtained on an ABI PRISM® 7900HT Sequence Detection PCR system (Applied Biosystems, Foster City, Calif.) by kinetic allele-specific PCR, similar to the method described by Germer et al. (Germer S., Holland M. J., Higuchi R. 2000, Genome Res. 10: 258-266).
Statistical analysis for association of SNPs with pravastatin treatment in cardiovascular events prevention (Table 8) was carried out using an overall logistic regression model that included an intercept, a parameter for the effect of a genotype containing two rare alleles versus a genotype containing no rare alleles, a parameter for the effect of a genotype containing one rare allele versus a genotype containing no rare alleles, a parameter for the effect of use of pravastatin versus the use of placebo, and parameters for the interaction effects between SNP genotypes and pravastatin use. The test of the overall model is a chi-square test with two degrees of freedom for analyses containing all three genotypes, and one degree of freedom for analyses containing two genotypes.
Effect sizes were estimated through odds ratios (pravastatin group versus placebo) for carriers of each genotype (groups of 0, 1, and 2 minor allele carriers). The effect was considered to be significant if p-value for testing whether any of the interactions between SNP genotypes and pravastatin use were <0.05. […] Odds ratios less than one indicate that the specific SNP allele has a protective effect and odds ratios greater than one indicate that the specific SNP allele has an adverse effect.

[1] = ELN hCV1253630, All Patients, Fatal CHD/Definite Non-fatal MI
[2] = ELN hCV1253630, All Patients, Fatal/Non-fatal MI (def & prob)
[3] = ELN hCV1253630, All Patients, Hosp. for Cardiovascular Disease
[4] = ELN hCV1253630, All Patients, Non-fatal MI (def & prob)
[5] = ELN hCV1253630, All Patients, Total Cardiovascular Disease Events
[6] = ELN hCV1253630, All Patients, Total Coronary Heart Disease Events
[7] = FCGR2A hCV9077561, All Patients, 0 Rare Alleles, Prava arm
[8] = FCGR2A hCV9077561, All Patients, 1 Rare Allele, Prava arm
[9] = FCGR2A hCV9077561, All Patients, 2 Rare Alleles, Prava arm
[10] = HLA-DPA1 hCV15760070, All Patients, Coronary Artery Bypass or Revascularization
[11] = HLA-DPA1 hCV15760070, All Patients, Total Coronary Heart Disease Events

With `CC[C@H](C)C(=O)O[C@H]1C[C@H](O)C=C2C=C[C@H](C)[C@H](CC[C@@H](O)C[C@@H](O)CC(=O)O)[C@H]21` [pravastatin] the “Fatal CHD/Definite Non-fatal MI, n/total (%)” value (ELN hCV1253630, All Patients, 2 Rare Alleles, Prava, n/total 29/245) was “(11.8%)”, the “Non-fatal MI (def & prob), n/total (%)” value (ELN hCV1253630, All Patients, 2 Rare Alleles, Prava, n/total 30/245) was “(12.2%)” and the “Fatal/Non-fatal MI (def & prob), n/total (%)” value (ELN hCV1253630, All Patients, 2 Rare Alleles, Prava, n/total 33/245) was “(13.5%)”. The “Total Coronary Heart Disease Events, n/total (%)” value (ELN hCV1253630, All Patients, 2 Rare Alleles, Prava, n/total 88/245) was “(35.9%)”, the “Hosp. for Cardiovascular Disease, n/total (%)” value (ELN hCV1253630, All Patients, 2 Rare Alleles, Prava, n/total 113/245) was “(46.1%)” and the “Total Cardiovascular Disease Events, n/total (%)” value (ELN hCV1253630, All Patients, 2 Rare Alleles, Prava, n/total 115/245) was “(46.9%)”. The “Prava vs. Placebo Odds Ratio, 0 Rare Alleles” value [1] was 0.50, the “Prava vs. Placebo Odds Ratio, 1 Rare Alleles” value [1] was 0.75 and the “Prava vs. Placebo Odds Ratio, 2 Rare Alleles” value [1] was 1.41. The “Prava vs. Placebo Odds Ratio, 0 Rare Alleles” value [2] was 0.44, the “Prava vs. Placebo Odds Ratio, 1 Rare Alleles” value [2] was 0.68 and the “Prava vs. Placebo Odds Ratio, 2 Rare Alleles” value [2] was 1.63. The “Prava vs. Placebo Odds Ratio, 0 Rare Alleles” value [3] was 0.63, the “Prava vs. Placebo Odds Ratio, 1 Rare Alleles” value [3] was 0.76 and the “Prava vs. Placebo Odds Ratio, 2 Rare Alleles” value [3] was 1.15. For the same compound, the “Prava vs. Placebo Odds Ratio, 0 Rare Alleles” value [4] was 0.50, the “Prava vs. Placebo Odds Ratio, 1 Rare Alleles” value [4] was 0.67 and the “Prava vs. Placebo Odds Ratio, 2 Rare Alleles” value [4] was 1.63. The “Prava vs. Placebo Odds Ratio, 0 Rare Alleles” value [5] was 0.63, the “Prava vs. Placebo Odds Ratio, 1 Rare Alleles” value [5] was 0.75 and the “Prava vs. Placebo Odds Ratio, 2 Rare Alleles” value [5] was 1.11. The “Prava vs. Placebo Odds Ratio, 0 Rare Alleles” value [6] was 0.66, the “Prava vs. Placebo Odds Ratio, 1 Rare Alleles” value [6] was 0.73 and the “Prava vs. Placebo Odds Ratio, 2 Rare Alleles” value [6] was 1.26. The “Catheterization, n/total (%)” value [7] was “(11.6%)”, the “Coronary Artery Bypass or Revascularization, n/total (%)” value [7] was “(16.1%)” and the “Catheterization, n/total (%)” value [8] was “(11.2%)”. For the same compound, the “Coronary Artery Bypass or Revascularization, n/total (%)” value [8] was “(14.8%)”, the “Catheterization, n/total (%)” value [9] was “(6.8%)” and the “Coronary Artery Bypass or Revascularization, n/total (%)” value [9] was “(11.8%)”. The “Fatal CHD/Definite Nonfatal MI, n/total (%)” value (0 Rare Alleles, Prava arm) was “(10.5%)”, the “Fatal/Nonfatal MI (def & prob), n/total (%)” value (“Fatal/Nonfatal MI … (%)” for short) (0 Rare Alleles, Prava arm) was “(10.6%)” and the “MI (Fatal/Nonfatal), n/total (%)” value (0 Rare Alleles, Prava arm) was “(10.9%)”. The “Nonfatal MI (Probable/Definite), n/total (%)” value (0 Rare Alleles, Prava arm) was “(10.3%)”, the “Nonfatal MI (def & prob), n/total (%)” value (0 Rare Alleles, Prava arm) was “(9.9%)” and the “Fatal CHD/Definite Nonfatal MI, n/total (%)” value (1 Rare Allele, Prava arm) was “(7.4%)”. The “Fatal/Nonfatal MI … (%)” value (1 Rare Allele, Prava arm) was “(8.7%)”, the “MI (Fatal/Nonfatal), n/total (%)” value (1 Rare Allele, Prava arm) was “(8.7%)” and the “Nonfatal MI (Probable/Definite), n/total (%)” value (1 Rare Allele, Prava arm) was “(8.1%)”. For the same compound, the “Nonfatal MI (def & prob), n/total (%)” value (1 Rare Allele, Prava arm) was “(7.6%)”, the “Fatal CHD/Definite Nonfatal MI, n/total (%)” value (2 Rare Alleles, Prava arm) was “(8.1%)” and the “Fatal/Nonfatal MI … (%)” value (2 Rare Alleles, Prava arm) was “(6.5%)”. For the same compound, the “MI (Fatal/Nonfatal), n/total (%)” value (2 Rare Alleles, Prava arm) was “(6.5%)”, the “Nonfatal MI (Probable/Definite), n/total (%)” value (2 Rare Alleles, Prava arm) was “(6.5%)” and the “Nonfatal MI (def & prob), n/total (%)” value (2 Rare Alleles, Prava arm) was “(4.8%)”. For the same compound, the “Coronary Artery Bypass or Revascularization, n/total (%)” value (HLA-DPA1 hCV15760070, All Patients, 0 Rare Alleles, Prava, n/total 143/1019) was “(14.0%)”, the “Total Coronary Heart Disease Events, n/total (%)” value (HLA-DPA1 hCV15760070, All Patients, 0 Rare Alleles, Prava, n/total 285/1019) was “(28.0%)” and the “Coronary Artery Bypass or Revascularization, n/total (%)” value (HLA-DPA1 hCV15760070, All Patients, 1 Rare Allele, Prava, n/total 67/443) was “(15.1%)”. The “Total Coronary Heart Disease Events, n/total (%)” value (HLA-DPA1 hCV15760070, All Patients, 1 Rare Allele, Prava, n/total 136/443) was “(30.7%)”, the “Coronary Artery Bypass or Revascularization, n/total (%)” value (HLA-DPA1 hCV15760070, All Patients, 2 Rare Alleles, Prava, n/total 9/52) was “(17.3%)” and the “Total Coronary Heart Disease Events, n/total (%)” value (HLA-DPA1 hCV15760070, All Patients, 2 Rare Alleles, Prava, n/total 21/52) was “(40.4%)”. For the same compound, the “Prava vs. Placebo Odds Ratio, 0 Rare Alleles” value [10] was 0.65, the “Prava vs. Placebo Odds Ratio, 1 Rare Alleles” value [10] was 0.71 and the “Prava vs. Placebo Odds Ratio, 2 Rare Alleles” value [10] was 5.65. The “Prava vs. Placebo Odds Ratio, 0 Rare Alleles” value [11] was 0.69, the “Prava vs. Placebo Odds Ratio, 1 Rare Alleles” value [11] was 0.86 and the “Prava vs. Placebo Odds Ratio, 2 Rare Alleles” value [11] was 2.48. The “Fatal/Non-fatal MI (def & prob), n/total (%)” value (HLA-DPB1 hCV8851085, All Patients, 0 Rare Alleles, Prava, n/total 82/919) was “(8.9%)”.

Reference: patent publication US9932637B2, “Genetic polymorphisms associated with cardiovascular disorders and drug response, methods of detection and uses thereof” (CELERA CORPORATION, priority 2003, dated 2018)
